Ends that are not written are not given here.

Results on 41 substances are retold here after US20040029808A1, “Peptides capable of functioning as mimotopes for hormonal analytes” (priority 2000, published 2004).

One test deals with MAb4155 (anti-estrone-3-glucuronide monoclonal antibody). Description: ELISA testing of peptides on pins: binding of MAb4155 to peptides. Also on record: species or system mouse. Particulars: D-isomer reverse sequence versus L-isomer parent. (In general: An ELISA detects its analyte on a solid surface through an enzyme-linked reagent.)
For the substance “Asp-Tyr-Phe-Leu-Gly (DYFLG) [SEQ ID NO:37]”, the “Binding affinity relative to the parent sequence (SEQ ID NO:28)” value was “equivalent”.

Another test has the same test system. Described as above. Also on record: species or system mouse. Particulars: Table 1; peptides on pins based on SEQ ID NO:2 (truncations, Ala/Gly replacement). How it is done:
Monoclonal antibodies MAb 4155 were expressed from the 4155 monoclonal cell line. The 4155 monoclonal cell line was prepared and screened according to the methods described by Gani et al., (3 Steroid Biochem. Molec. Biol. 48, 277-282 (1994)).
Peptides were synthesised in duplicate or triplicate from the C-terminus by solid phase peptide synthesis on the heads of polyethylene pins (Geysen et al., Strategies for epitope analysis using peptide synthesis. J. Immunol. Methods 102, 259-274 (1987)) using a Multipin Peptide Synthesis Kit (Chiron Mimotopes, Victoria, Australia). Pins were arranged in a plastic holder in the format of a 96-well microtitre plate.
All incubation steps were performed at room temperature (18-25° C.) by lowering the pins reagents dispensed into 96-well microtitre plates (Becton Dickinson, Calif., USA). Washing was accomplished by placing the block of pins in a bath of phosphate buffered saline (PBS) containing Tween 20™ (0.01% v/v) with agitation for four cycles of 5 min. Non-specific binding sites on the surface of the pins were blocked by incubating in PBS containing casein (1% w/v, 175 μl/well) for 1 h. MAb4155 was diluted in blocking buffer and the pins were incubated in the antibody solution (150 μl/well) for 18 h at 4° C. After washing, the pins were incubated in horseradish peroxidase (HRP)-conjugated rabbit anti-mouse immunoglobulin (Dako, High Wycombe, UK, 1/1000 in blocking buffer for 1 h at 150 μl/well). The pins were washed once more and then incubated in ABTS [2,2′-azino-bis (3ethylbenzothiazoline-6-sulphonic acid)] working substrate for 15 min (150 μl/well). ABTS was prepared as a 0.033% (w/v) solution in 0.1M citrate phosphate buffer (pH 4.5) with 33% hydrogen peroxide (1 μl/ml). Colour development was terminated by removal of the pins from the wells and was measured spectrophotometrically at 405 nm using a Milenia Kinetic Analyser™ (DPC, Llanberis, Wales).
In order to identify core binding regions, a set of peptides was synthesised on the heads of pins based on SEQ ID NO:2. […] In addition, a set of peptides was synthesised in which each residue of the lead sequence was replaced by Ala (or Gly if Ala already existed at that position) in order to assess the contribution of each residue to the binding event.
Additional core binding sequences were identified utilizing the amino acid sequence SEQ ID NO:8 and investigating the effect of systematic replacement of each residue by the other 19 naturally occurring amino acids using known techniques as exemplified in Verhoeyen et al., Construction of a reshaped HMFG1 antibody and comparison of its fine specificity with that of the parent mouse antibody. Immunology, 78, 364-370 (1993).
Regarding AAARGLFED [SEQ ID NO:14], the “Relative Binding of MAb4155 to peptides as measured by ELISA” value (“Relative Binding of MAb4155 to peptides” below) is 1.5.

With AAEAGLFED [SEQ ID NO:15], the “Relative Binding of MAb4155 to peptides” value turned out to be 2.0.

As for AAERALFED [SEQ ID NO:16], the “Relative Binding of MAb4155 to peptides” value came to 1.5.

Consider AAERGAFED [SEQ ID NO:17], for which the “Relative Binding of MAb4155 to peptides” value amounted to 1.6.

For the substance AAERGL [SEQ ID NO:73], the “Relative Binding of MAb4155 to peptides” value stood at 1.0.

Turning to AAERGLAED [SEQ ID NO:78], the “Relative Binding of MAb4155 to peptides” value is 0.8.

Consider AAERGLF [SEQ ID NO:72], for which the “Relative Binding of MAb4155 to peptides” value is 1.0.

On to AAERGLFAD [SEQ ID NO:79], for which the “Relative Binding of MAb4155 to peptides” value worked out at 1.8.

Consider AAERGLFE [SEQ ID NO:71], for which the “Relative Binding of MAb4155 to peptides” value came out at 1.0.

As to AAERGLFEA [SEQ ID NO:80], the “Relative Binding of MAb4155 to peptides” value is recorded as 1.1.

For AAERGLFED [SEQ ID NO:2], the “Relative Binding of MAb4155 to peptides” value came out at 2.0.

For the substance AERGLFED [SEQ ID NO:11], the “Relative Binding of MAb4155 to peptides” value is given as 1.5.

On to AGERGLFED [SEQ ID NO:13], for which the “Relative Binding of MAb4155 to peptides” value is 2.0.

As for Ala-Ala-Glu (AAE) [SEQ ID NO:76], the “Relative Binding of MAb4155 to peptides” value is on record as 0.9.

On to Ala-Ala-Glu-Arg (AAER) [SEQ ID NO:75], for which the “Relative Binding of MAb4155 to peptides” value turned out to be 0.8.

With “Ala-Ala-Glu-Arg-Gly (AAERG) [SEQ ID NO:74]”, the “Relative Binding of MAb4155 to peptides” value is on record as 1.0.

For the substance ERGLFED [SEQ ID NO:10], the “Relative Binding of MAb4155 to peptides” value came out at 1.8.

Regarding GAERGLFED [SEQ ID NO:12], the “Relative Binding of MAb4155 to peptides” value is listed as 1.9.

For the substance “Gly-Leu-Phe-Glu-Asp (GLFED) [SEQ ID NO:8]”, the “Relative Binding of MAb4155 to peptides” value is 2.2.

As for Leu-Phe-Glu-Asp (LFED) [SEQ ID NO:7], the “Relative Binding of MAb4155 to peptides” value is 1.9.

In the case of Phe-Glu-Asp (FED) [SEQ ID NO:6], the “Relative Binding of MAb4155 to peptides” value turned out to be 2.0.

Regarding RGLFED [SEQ ID NO:9], the “Relative Binding of MAb4155 to peptides” value stood at 1.6.

The same test, now with this note: Table 2; replacement analogues of SEQ ID NO:8, setting SEQ ID NO:8 to a Relative Binding of 100.
On to “Gly-Leu-Phe-Asp-Asp (GLFDD) [SEQ ID NO:23]”, for which the “Relative Binding of MAb4155 to peptides” value is 121.

Consider “Gly-Leu-Phe-Cys-Asp (GLFCD) [SEQ ID NO:22]”, for which the “Relative Binding of MAb4155 to peptides” value is reported as 335.

Take “Gly-Leu-Phe-Glu-Asp (GLFED) [SEQ ID NO:8]”: the “Relative Binding of MAb4155 to peptides” value was found to be 100.

As for “Gly-Leu-Phe-Glu-Cys (GLFEC) [SEQ ID NO:29]”, the “Relative Binding of MAb4155 to peptides” value is 296.

As to “Gly-Leu-Phe-Glu-Ile (GLFEI) [SEQ ID NO:31]”, the “Relative Binding of MAb4155 to peptides” value turned out to be 174.

Turning to “Gly-Leu-Phe-Glu-Leu (GLFEL) [SEQ ID NO:32]”, the “Relative Binding of MAb4155 to peptides” value is 168.

On to “Gly-Leu-Phe-Glu-Phe (GLFEF) [SEQ ID NO:30]”, for which the “Relative Binding of MAb4155 to peptides” value was found to be 204.

“Gly-Leu-Phe-Glu-Trp (GLFEW) [SEQ ID NO:34]”: the “Relative Binding of MAb4155 to peptides” value stood at 594.

On to “Gly-Leu-Phe-Glu-Tyr (GLFEY) [SEQ ID NO:35]”, for which the “Relative Binding of MAb4155 to peptides” value was determined as 386.

Consider “Gly-Leu-Phe-Glu-Val (GLFEV) [SEQ ID NO:33]”, for which the “Relative Binding of MAb4155 to peptides” value was found to be 177.

Regarding “Gly-Leu-Phe-Ile-Asp (GLFID) [SEQ ID NO:25]”, the “Relative Binding of MAb4155 to peptides” value is given as 169.

With “Gly-Leu-Phe-Leu-Asp (GLFLD) [SEQ ID NO:26]”, the “Relative Binding of MAb4155 to peptides” value worked out at 138.

As to “Gly-Leu-Phe-Phe-Asp (GLFFD) [SEQ ID NO:24]”, the “Relative Binding of MAb4155 to peptides” value came out at 184.

Turning to “Gly-Leu-Phe-Trp-Asp (GLFWD) [SEQ ID NO:27]”, the “Relative Binding of MAb4155 to peptides” value stood at 578.

In the case of “Gly-Leu-Phe-Tyr-Asp (GLFYD) [SEQ ID NO:28]”, the “Relative Binding of MAb4155 to peptides” value is given as 252.

Take “Gly-Leu-Trp-Glu-Asp (GLWED) [SEQ ID NO:21]”: the “Relative Binding of MAb4155 to peptides” value turned out to be 207.

Regarding “Gly-Phe-Phe-Glu-Asp (GFFED) [SEQ ID NO:18]”, the “Relative Binding of MAb4155 to peptides” value was determined as 200.

On to “Gly-Trp-Phe-Glu-Asp (GWFED) [SEQ ID NO:19]”, for which the “Relative Binding of MAb4155 to peptides” value is given as 343.

“Gly-Tyr-Phe-Glu-Asp (GYFED) [SEQ ID NO:20]”: the “Relative Binding of MAb4155 to peptides” value came to 220.
